The text below walks through data of patent US20190203240A1, “METHODS FOR THE PRODUCTION OF RHAMNOSYLATED FLAVONOIDS” (Universitaet Hamburg, priority 2016, published 2019).

“And” between values parts separate entries of the source, which are not always exact repeats. Equal entries are not always repeated.

For data set [1], the system named is lipid peroxides (C11-fluor) in NHEK cells. Put plainly: Protection against UV-induced lipid peroxide in NHEK (C11-fluor probe, flow cytometry). Particulars: 240 mJ/cm^2 UVB (3538 mJ/cm^2 UVA), 50 μM. It counts as cell-based, human. The protocol: Pre-incubated NHEK were incubated with the test compound for 24 h. Then the specific fluorescence probe for the measurement of hydrogen peroxide (DHR) or lipid peroxides (C11-fluor) was added and incubated for 45 min. Irradiation occurred with in H2O2 determination UVB at 180 mJ/cm^2 (+UVA at 2839 mJ/cm^2) or UVB at 240 mJ/cm^2 (+UVA at 3538 mJ/cm^2) in lipid peroxide, respectively, using a SOL500 Sun Simulator lamp. After irradiation the cells were post-incubated for 30 min before flow-cytometry analysis.
(In flow cytometry, cells or beads pass a laser one at a time.)

The test system of another data set is NF-κB. Put plainly: NF-κB activity in NIH3T3-KBF-Luc cells stimulated with TNFα (luciferase). It counts as cell-based. The conditions noted are these: +30 ng/ml TNFα. The protocol: NIH3T3-KBF-Luc cells were stably transfected with the KBF-Luc plasmid (Sancho (2003) Mol Pharmacol 63:429-438), which contains three copies of NF-κB binding site (from major histocompatibility complex promoter), fused to a minimal simian virus 40 promoter driving the luciferase gene. Cells (1×10^4 for NIH3T3-KBF-Luc) were seeded the day before the assay on 96-well plate. Then the cells were treated with the test substances for 15 min and then stimulated with 30 ng/ml of TNFα. After 6 h, the cells were washed twice with PBS and lysed in 50 μl lysis buffer containing 25 mM Tris-phosphate (pH 7.8), 8 mM MgCl2, 1 mM DTT, 1% Triton X-100, and 7% glycerol during 15 min at RT in a horizontal shaker. Luciferase activity was measured using a GloMax 96 microplate luminometer (Promega) following the instructions of the luciferase assay kit (Promega, Madison, Wis., USA). […] The experiments for each concentration of the test items were done in triplicate wells.

Another data set relates to STAT3. In words: STAT3 activity in HeLa-STAT3-luc cells stimulated with IFN-γ (luciferase). The conditions noted are these: +IFNγ 25 U/ml. It counts as cell-based. The protocol:
HeLa-STAT3-luc cells were stably transfected with the plasmid 4×M67 pTATA TK-Luc. Cells (20×10^3 cells/ml) were seeded 96-well plate the day before the assay. Then the cells were treated with the test substances for […] and then stimulated with IFN-γ 25 IU/ml. After 6 h, the cells were washed twice with PBS and lysed in […] lysis buffer containing 25 mM Tris-phosphate (pH 7.8), 8 mM MgCl2, 1 mM DTT, 1% Triton X-100, and 7% glycerol during […] at RT in a horizontal shaker. Luciferase activity was measured using GloMax 96 microplate luminometer (Promega) following the instructions of the luciferase assay kit (Promega, Madison, Wis., USA). […] The experiments for each concentration of the test items were done in triplicate wells.

Another data set relates to HaCaT cells. In words: Glucose uptake (2-NBDG) in HaCaT keratinocytes. It counts as cell-based. Particulars: +2NBDG 50 μM, 24 h. Here is the method: HaCaT cells (5×10^4) were seeded in 96-well black plates and incubated for 24 h. Then, medium was removed and the cells cultivated in OptiMEM, labeled with 50 μM 2-NBDG (2-[N-(7-nitrobenz-2-oxa-1,3-diazol-4-yl) amino]-2-deoxy-D-glucose and treated with the test substances or the positive control, Rosiglitazone, for 24 h. Medium was removed and the wells were carefully washed with PBS and incubated in PBS (100 μl/well). Finally the fluorescence was measured using the Incucyte FLR software, the data were analyzed by the total green object integrated intensity (GCU×μm2×Well) of the imaging system IncuCyte HD (Essen BioScience). The fluorescence of Rosiglitazone is taken as 100% of glucose uptake, and the glucose uptake was calculated as (% Glucose uptake)=100(T−B)/(R−B), where T (treated) is the fluorescence of test substance-treated cells, B (Basal) is the fluorescence of 2-NBDG cells and […] is the fluorescence of cells treated with Rosiglitazone.

Data set [2] relates to normal human epidermal keratinocytes (NHEK). Put plainly: Cytotoxicity on NHEK monolayer (MTT reduction assay and morphological observation). In kind it is cell-based. The conditions noted are these: for Viability (%) Mean / Viability (%): MTT; for Viability (%): single values; for Morph. obs.: microscope. The protocol: To determine the cytotoxicity of flavonoid-5-O-α-L-rhamnosides tests were performed versus their aglycon derivatives in cell monolayer cultures. For this purpose concentrations ranging from 1 μM to 250 μM were chosen. The viability of normal human epidermal keratinocytes (NHEK) was twice evaluated by a MTT reduction assay and morphological observation with a microscope. NHEK were grown at 37° C. and 5% CO2 aeration in Keratinocyte-SFM medium supplemented with epidermal growth factor (EGF) at 0.25 ng/mL, pituitary extract (PE) at 25 μg/mL and gentamycin (25 μg/mL) for 24 h and were used at the 3rd passage. For cytotoxicity testing, pre-incubated NHEK were given fresh culture medium containing a specific concentration of test compound and incubated for 24 h. After a medium change at same test concentration cells were incubated a further 24 h until viability was determined. Test results are given in Table B2 and illustrated in FIG. 10.
(In general: Tetrazolium assays rely on reduction of a dye to a coloured formazan, in cell work by metabolically active cells.)

The subject of a further data set is PGE2. In words: Anti-inflammatory potential: secreted PGE2 in stimulated NHEK (ELISA). It counts as cell-based, human. Particulars: PMA - 1 μg/ml, reference at 10^−6M, cytokine type not given. Here is the method: NHEK were pre-incubated for 24 h with the test compounds. The medium was replaced with the NHEK culture medium containing the inflammatory inducers (PMA or Poly I:C) and incubated for another 24 hours. Positive and negative controls ran in parallel. At the endpoint the culture supernatants were quantified of secreted IL-8, PGE2 and TNF-α, by means of ELISA.

The next data set deals with fibronectin. In words: Stimulation of fibronectin synthesis in NHDF (ELISA). The conditions noted are these: 72 h incubation, 10 ng/ml. In kind it is cell-based, human. Here is the method: Tests were performed with normal human dermal fibroblast cultures at the 8th passage. Cells were grown in DMEM supplemented with glutamine at 2 mM, penicillin at 50 U/mL and streptomycin (50 μg/mL) and 10% of fetal calf serum (FCS) at 37° C. in a 5% CO2 atmosphere.
Fibroblasts were cultured for 24 hours before the cells were incubated with the test compounds for further 72 hours. After the incubation the culture supernatants were collected in order to measure the released quantities of procollagen I, VEGF, and fibronectin by means of ELISA. Reference test compounds were vitamin C (procollagen I), PMA (VEGF), and TGF-β (fibronectin).

`Cc1cc(C(C)(C)C)c(O)c(C(C)(C)C)c1` [BHT]: in data set [1], the “C11-fluor (AU) Mean (1/GMFI)” value is reported as 3.3E−04 AU, the “lipid peroxide % Irradiated control” value is reported as 72% and the “lipid peroxide Protection %” value came to 37%. In data set [1] (single values), the “C11-fluor (AU) 1/GMFI” value is 3.2E−04 AU and 3.3E−04 AU and 3.5E−04 AU; the “C11-fluor (AU) GMFI” value is 3139 AU and 3047 AU and 2877 AU.

Take `COc1ccc(-c2coc3cc(O)cc(O[C@@H]4O[C@@H](C)[C@H](O)[C@@H](O)[C@H]4O)c3c2=O)cc1` [BR2, Biochanin A 5-O-α-L-rhamnoside]: in the data set with NF-κB (10 μM), the “% Activation (NF-κB; TNFα = 100%)” value is 138.3%, the “RLU 1” value is recorded as 205410 RLU, the “RLU 2” value is reported as 202640 RLU and the “RLU 3” value was found to be 202940 RLU. Moreover, in the data set with NF-κB (10 μM), the “RLU MEAN” value is 203663 RLU and the RLU specific is reported as 180300 RLU. In the data set with NF-κB (25 μM), the “% Activation (NF-κB; TNFα = 100%)” value was determined as 163.2%, the “RLU 1” value is 237390 RLU, the “RLU 2” value came to 235850 RLU and the “RLU 3” value is listed as 235350 RLU. Besides, in the data set on NF-κB (25 μM), the “RLU MEAN” value turned out to be 236197 RLU and the RLU specific is reported as 212833 RLU. In the data set on STAT3 (25 μM), the “% Activation (STAT3; IFNγ = 100%)” value was found to be 109.76%, the “RLU 1” value was found to be 11157 RLU, the “RLU 2” value was found to be 10163 RLU and the “RLU 3” value is recorded as 10660 RLU. In the data set on STAT3 (25 μM), the “RLU MEAN” value is 10660 RLU and the RLU specific came out at 8825 RLU. Besides, in the data set on STAT3 (50 μM), the “% Activation (STAT3; IFNγ = 100%)” value is given as 93.74%, the “RLU 1” value was determined as 7983 RLU, the “RLU 2” value stood at 9023 RLU and the “RLU 3” value was determined as 11110 RLU. In the data set on STAT3 (50 μM), the “RLU MEAN” value is 9372 RLU and the RLU specific came to 7537 RLU. In addition, in the data set on HaCaT cells (25 μM), the “% Glucose uptake (Rosiglitazone = 100%)” value is recorded as 77.5%, the “Mean (fluorescence)” value was 1027608, the “Measure 1 (fluorescence)” value was determined as 998132 and the “Measure 2 (fluorescence)” value came out at 1149619. In the data set on HaCaT cells (25 μM), the “Measure 3 (fluorescence)” value is 935073 and the RFU specific is 994522 RFU. Further, in the data set with HaCaT cells (50 μM), the “% Glucose uptake (Rosiglitazone = 100%)” value is listed as 129.0%, the “Mean (fluorescence)” value is on record as 1688513, the “Measure 1 (fluorescence)” value stood at 1657600 and the “Measure 2 (fluorescence)” value is recorded as 1788604. Further, in the data set with HaCaT cells (50 μM), the “Measure 3 (fluorescence)” value stood at 1619334 and the RFU specific came to 1655427 RFU.

For `COc1ccc(C2CC(=O)c3c(O)cc(O)cc3O2)cc1O` (stereo not drawn) [Hesperetin, 3′,5,7-Trihydroxy-4′-methoxyflavanone], the “Viability (%) Mean” value in data set [2] (1 μM) was determined as 105%; in data set [2] (2.5 μM) it was 103%; in data set [2] (5 μM), 106%; in data set [2] (10 μM) it was 103%; in data set [2] (25 μM), 108%; in data set [2] (50 μM), 106%. The “Viability (%) Mean” value in data set [2] (100 μM) is 99%; in data set [2] (250 μM), 57%; in data set [2] (250 μM, listed as hesperetin), “about 50%”. In addition, the “Viability (%)” value in data set [2] (1 μM) was 103% and 106%; in data set [2] (2.5 μM), 98% and 109%; in data set [2] (5 μM), 107% and 106%; in data set [2] (10 μM) it was 101% and 105%; in data set [2] (25 μM), 106% and 109%; in data set [2] (50 μM) it was 106%. Also, the “Viability (%)” value in data set [2] (100 μM) was 98% and 100%; in data set [2] (250 μM), 54% and 59%.

Regarding `COc1ccc2c(c1)c(CC(=O)O)c(C)n2C(=O)c1ccc(Cl)cc1` [Indomethacin], in the data set on PGE2, the “% stim. control” value was found to be 2% and the “Cytokine [pg/mL] Mean” value turned out to be 39 pg/mL. Besides, the “Cytokine” value in the data set on PGE2 (single values) was determined as 39 pg/mL.

Turning to `O=C1CC(c2ccc(O)cc2)Oc2cc(O)cc(O)c21` (stereo not drawn) [Naringenin, 4′,5,7-Trihydroxyflavanone], the “Viability (%) Mean” value in data set [2] (1 μM) is given as 95%; in data set [2] (2.5 μM), 93%; in data set [2] (5 μM) it was 92%; in data set [2] (10 μM) it was 95%; in data set [2] (25 μM) it was 92%; in data set [2] (50 μM) it was 89%. For the same compound, the “Viability (%) Mean” value in data set [2] (100 μM) is on record as 75%; in data set [2] (250 μM) it was 47%; in data set [2] (250 μM, listed as naringenin) it was “about 50%”. Also, the “Viability (%)” value in data set [2] (1 μM) is 96% and 95%; in data set [2] (2.5 μM), 95% and 92%; in data set [2] (5 μM), 93% and 91%; in data set [2] (10 μM) it was 95%; in data set [2] (25 μM) it was 89% and 94%; in data set [2] (50 μM), 85% and 94%. Further, the “Viability (%)” value is 76% and 74% in data set [2] (100 μM); 48% and 47% in data set [2] (250 μM). Further, the Morph. obs. result in data set [2] (100 μM) and in data set [2] (250 μM) was “+/−,*” throughout.

Consider TGF-β [listing 1 of 2 here], for which, in the data set on fibronectin, the “Fibronectin % Control” value was determined as 181%; the “Fibronectin % Stimulation” value was found to be 81%; the “Fibronectin (ng/ml), single replicates” value turned out to be 10870 ng/mL.

For TGF-β [listing 2 of 2 here], the “Fibronectin (ng/ml), single replicates” value in the data set on fibronectin is 11178 ng/mL and 11128 ng/mL.
